Our source for the AC50 and EC50 values is patent US12344610B2, “APOL1 inhibitors and methods of use” (Maze Therapeutics, Inc., priority 2022, dated 2025).

One assay addresses T1, APOL1 G2 (Homo sapiens, UniProt O14791, DEL388-389).
T1 construct: expressed in transfected cells; host or cells: HEK293 T-REx clonal line stably expressing GCaMP6f (HEK T-REx/GCaMP6f/APOL1 G2 K6.3), doxycycline induced
T1 sequence (O14791 with tags, fused parts or gaps DEL388-389): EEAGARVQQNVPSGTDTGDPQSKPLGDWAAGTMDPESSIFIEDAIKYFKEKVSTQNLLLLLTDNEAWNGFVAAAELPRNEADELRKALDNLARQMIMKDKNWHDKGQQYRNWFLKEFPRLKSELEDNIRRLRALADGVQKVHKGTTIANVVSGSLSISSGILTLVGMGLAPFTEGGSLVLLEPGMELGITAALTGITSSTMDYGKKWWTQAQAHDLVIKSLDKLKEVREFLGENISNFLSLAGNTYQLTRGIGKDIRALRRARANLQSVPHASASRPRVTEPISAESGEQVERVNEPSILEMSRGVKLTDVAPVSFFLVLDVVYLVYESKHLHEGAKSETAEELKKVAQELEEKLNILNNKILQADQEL
Description: APOL1-mediated calcium transport (calcium influx) assay, HEK T-REx/GCaMP6f/APOL1 G2 K6.3 cells, FLIPR TETRA. Conditions: prevention of calcium influx; geometric mean of at least 2 assay runs; † = average of a technical replicate from a single assay run. It counts as cell-based. In outline:
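A HEK293 T-REx clone stably expressing GCaMP6f had APOL1 G2 induced with doxycycline (20 ng/mL solution added) for 6 h. Cells were then washed into Ca2+-free Tyrode's buffer (pH 7.4) and preincubated with compounds (duplicate 8-point) for 10 min at room temperature. Ca2+ injection to 5 mM final produced FLIPR GCaMP fluorescence, giving AC50 for influx inhibition (geometric mean, ≥2 runs).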

Assay [1] concerns HEK293 cells overexpressing APOL1 G2. Description: APOL1 G2 HEK293 cell rescue assay (reversal of cell death caused by overexpression of APOL1). The class given is cell-based. Conditions: geometric mean of at least 2 assay runs, † = single assay run. In outline: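 Each compound tested in duplicate wells on one plate per run, with values usually the geometric mean across at least two runs on different days, occasionally from one run only. Read-out: concentration giving half-maximal rescue of APOL1 G2 overexpression-induced death of HEK293 cells.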

Where [2] appears, read: Homo sapiens, HEK293, HEK293 overexpressing APOL1 G2.

pEC50: −log10 of the molar value.

One may read the AC50 as the concentration giving half of the maximal activity seen. As usually defined, the pEC50 is the negative decadic logarithm of the EC50, by convention in mol/L. For the compound `O=C1Nc2ccc(Cl)cc2C12CCN(CCOc1ccc(C3CCCS3(=O)=O)cc1)CC2` (single isomer, unassigned) [Compound 177, (R) or (S)-2-[4-(2-{5-chloro-2-oxo-1,2-dihydrospiro[indole-3,4′-piperidin]-1′-yl}ethoxy)phenyl]-1λ^6-thiolane-1,1-dione], at APOL1 G2, the half-maximal activity concentration (AC50) stood at 670 nM. Moreover, the pEC50 in assay [1] (HEK293 overexpressing APOL1 G2) is 7.11.
Consider `CS(=O)(=O)c1ccc(OCCN2CCC3(CC2)C(=O)Nc2c(C#N)cc(Cl)cc23)cc1` [Compound 9, 5-chloro-1′-[2-(4-methanesulfonylphenoxy)ethyl]-2-oxo-1,2-dihydrospiro[indole-3,4′-piperidine]-7-carbonitrile], for which the AC50 on APOL1 G2 was 1310 nM. Also, the pEC50 in assay [1] (setting [2]) was 5.75.
The corresponding values for `CS(=O)(=O)CCCn1ncc2cc(OCCN3CCC4(CC3)C(=O)Nc3ccc(Cl)cc34)ccc21` [Compound 14, 5-chloro-1′-(2-{[1-(3-methanesulfonylpropyl)-1H-indazol-5-yl]oxy}ethyl)-1,2-dihydrospiro[indole-3,4′-piperidin]-2-one] are 704 nM and 6.89.
The corresponding values for `O=C1Nc2ccc(Cl)cc2C12CCN(CCOc1ccc3c(cnn3C3COC3)c1)CC2` [Compound 15, 5-chloro-1′-(2-{[1-(oxetan-3-yl)-1H-indazol-5-yl]oxy}ethyl)-1,2-dihydrospiro[indole-3,4′-piperidin]-2-one] are 654 nM and 6.91.
The corresponding values for `CC(C)n1ncc2cc(OCCN3CCC4(CC3)C(=O)Nc3ccc(Cl)cc34)ccc21` [Compound 16, 5-chloro-1′-(2-{[1-(propan-2-yl)-1H-indazol-5-yl]oxy}ethyl)-1,2-dihydrospiro[indole-3,4′-piperidin]-2-one] are 1160 nM and 6.95.
With `O=C1Nc2ccc(Cl)cc2C12CCN(CCOc1ccc(S(=O)(=O)[C@H]3C[C@@H](O)C3)cc1)CC2` [Compound 17, 5-chloro-1′-[2-(4-{[(cis)-3-hydroxycyclobutyl]sulfonyl}phenoxy)ethyl]-1,2-dihydrospiro[indole-3,4′-piperidin]-2-one], the AC50 at APOL1 G2 was 1100 nM. The pEC50 in assay [1] (setting [2]) is 7.22.
The corresponding values for `O=C1CCc2cc(OCCN3CCC4(CC3)C(=O)Nc3ccc(Cl)cc34)ccc2N1C1COC1` [Compound 99, 5-chloro-1′-(2-{[1-(oxetan-3-yl)-2-oxo-1,2,3,4-tetrahydroquinolin-6-yl]oxy}ethyl)-1,2-dihydrospiro[indole-3,4′-piperidin]-2-one] are 643 nM and 7.06.
For the compound `CS(=O)(=O)c1ccc(OCCN2CCC3(CC2)C(=O)Nc2ccc(C#N)cc23)cc1C(F)F` [Compound 100, 1′-{2-[3-(difluoromethyl)-4-methanesulfonylphenoxy]ethyl}-2-oxo-1,2-dihydrospiro[indole-3,4′-piperidine]-5-carbonitrile], on APOL1 G2, the AC50 is 503 nM. Further, the pEC50 in assay [1] (setting [2]) was 7.33.
For `CS(=O)(=O)C1(c2ccc(OCCN3CCC4(CC3)C(=O)Nc3ccc(C#N)cc34)cc2)CC1` [Compound 101, 1′-{2-[4-(1-methanesulfonylcyclopropyl)phenoxy]ethyl}-2-oxo-1,2-dihydrospiro[indole-3,4′-piperidine]-5-carbonitrile], in that order: 634 nM and 7.30.
The corresponding values for `CS(=O)(=O)C1(c2ccc(OCCN3CCC4(CC3)C(=O)Nc3ccc(Cl)cc34)cc2)CC1` [Compound 102, 5-chloro-1′-{2-[4-(1-methanesulfonylcyclopropyl)phenoxy]ethyl}-1,2-dihydrospiro[indole-3,4′-piperidin]-2-one] are 671 nM and 7.50.
The corresponding values for `CN1c2ccc(OCCN3CCC4(CC3)C(=O)Nc3ccc(Cl)cc34)cc2CCS1(=O)=O` [Compound 103, 6-(2-{5-chloro-2-oxo-1,2-dihydrospiro[indole-3,4′-piperidin]-1′-yl}ethoxy)-1-methyl-3,4-dihydro-1H-2λ^6,1-benzothiazine-2,2-dione] are 591 nM and 7.31.
Take `CN1c2ccc(OCCN3CCC4(CC3)C(=O)Nc3ccc(C#N)cc34)cc2CCS1(=O)=O` [Compound 104, 1′-{2-[(1-methyl-2,2-dioxo-3,4-dihydro-1H-2λ^6,1-benzothiazin-6-yl)oxy]ethyl}-2-oxo-1,2-dihydrospiro[indole-3,4′-piperidine]-5-carbonitrile]: the AC50 at APOL1 G2 is 408 nM. In assay [1] (setting [2]), the pEC50 is 6.86.
For `N#Cc1ccc2c(c1)C1(CCN(CCOc3ccc4c(c3)CCC(=O)N4CC(F)F)CC1)C(=O)N2` [Compound 105, 1′-(2-{[1-(2,2-difluoroethyl)-2-oxo-1,2,3,4-tetrahydroquinolin-6-yl]oxy}ethyl)-2-oxo-1,2-dihydrospiro[indole-3,4′-piperidine]-5-carbonitrile], in that order: 392 nM and 7.39.
The corresponding values for `O=C1CCc2cc(OCCN3CCC4(CC3)C(=O)Nc3ccc(Cl)cc34)ccc2N1CC(F)F` [Compound 106, 5-chloro-1′-(2-{[1-(2,2-difluoroethyl)-2-oxo-1,2,3,4-tetrahydroquinolin-6-yl]oxy}ethyl)-1,2-dihydrospiro[indole-3,4′-piperidin]-2-one] are 756 nM and 7.47.
For `CS(=O)(=O)c1ccc(OCCN2CCC3(CC2)C(=O)Nc2ccc(C#N)cc23)cc1C(F)(F)F` [Compound 107, 1′-{2-[4-methanesulfonyl-3-(trifluoromethyl)phenoxy]ethyl}-2-oxo-1,2-dihydrospiro[indole-3,4′-piperidine]-5-carbonitrile], in that order: 712 nM and 7.51.
With `CS(=O)(=O)c1ccc(OCCN2CCC3(CC2)C(=O)Nc2ccc(Cl)cc23)cc1C(F)(F)F` [Compound 108, 5-chloro-1′-{2-[4-methanesulfonyl-3-(trifluoromethyl)phenoxy]ethyl}-1,2-dihydrospiro[indole-3,4′-piperidin]-2-one], at APOL1 G2, the AC50 was 860 nM. For the same compound, the pEC50 in assay [1] (setting [2]) is 7.77.
The corresponding values for `CS(=O)(=O)C1(c2ccc(OCCN3CCC4(CC3)C(=O)Nc3ccc(C#N)cc34)cc2)COC1` [Compound 109, 1′-{2-[4-(3-methanesulfonyloxetan-3-yl)phenoxy]ethyl}-2-oxo-1,2-dihydrospiro[indole-3,4′-piperidine]-5-carbonitrile] are 1190 nM and 7.01.
For `Cc1cc(OCCN2CCC3(CC2)C(=O)Nc2ccc(Cl)cc23)ccc1S(C)(=O)=O` [Compound 110, 5-chloro-1′-[2-(4-methanesulfonyl-3-methylphenoxy)ethyl]-1,2-dihydrospiro[indole-3,4′-piperidin]-2-one], in that order: 772 nM and 7.38.
On to `Cc1cc(OCCN2CCC3(CC2)C(=O)Nc2ccc(C#N)cc23)ccc1S(C)(=O)=O` [Compound 111, 1′-[2-(4-methanesulfonyl-3-methylphenoxy)ethyl]-2-oxo-1,2-dihydrospiro[indole-3,4′-piperidine]-5-carbonitrile], for which the AC50 on APOL1 G2 stood at 919 nM. In addition, in assay [1] (setting [2]), the pEC50 is 6.85.
The corresponding values for `O=C1Nc2ccc(Cl)cc2C12CCN(CCOc1ccc(S(=O)(=O)C(F)F)cc1)CC2` [Compound 112, 5-chloro-1′-[2-(4-difluoromethanesulfonylphenoxy)ethyl]-1,2-dihydrospiro[indole-3,4′-piperidin]-2-one] are 746 nM and 7.33.
